Laboratory results reported in the supplement of paper PMC11061612.

Assays:
Test in all cases: combination Emax (second highest fraction inhibited in the dose matrix, 72 h); higher = more inhibition; extreme values may be limits of the assay
[1] = tested on: SISO (Cervical Carcinoma)
Method in brief: (§1)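 Bliss excess equals the observed combination effect minus the expected value EA + EB − EA·EB, where EA and EB are the effects of each agent alone. Combination Emax is the second-highest inhibition within the matrix. Inhibition was scaled from CellTiter-Glo 2.0 luminescence, with 0 set by vehicle wells and 1 by blank wells, after 72 hours of two-drug dosing of cells plated in 1536-well plates.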

[2] = tested on: NCI-H1666 (Lung Adenocarcinoma)
Method in brief: as §1

[3] = tested on: CAL-29 (Bladder Carcinoma)
Method in brief: as §1

[4] = tested on: COR-L311 (Small Cell Lung Carcinoma)
Method in brief: as §1

[5] = tested on: NCI-H2066 (Squamous Cell Lung Carcinoma)
Method in brief: as §1

[6] = tested on: COLO-320-HSR (Colorectal Carcinoma)
Method in brief: as §1

A498 (Kidney Carcinoma) = tested on: A498 (Kidney Carcinoma)
Method in brief: as §1

[7] = tested on: NCI-H1581 (Non-Small Cell Lung Carcinoma)
Method in brief: as §1

[8] = tested on: JSC-1 (B-Cell Non-Hodgkin's Lymphoma)
Method in brief: as §1

CAS-1 (Glioblastoma) = tested on: CAS-1 (Glioblastoma)
Method in brief: as §1

PA-1 (Ovarian Carcinoma) = tested on: PA-1 (Ovarian Carcinoma)
Method in brief: as §1

8-MG-BA (Glioblastoma) = tested on: 8-MG-BA (Glioblastoma)
Method in brief: as §1

[9] = tested on: KARPAS-422 (B-Cell Non-Hodgkin's Lymphoma)
Method in brief: as §1

IGR-37 (Melanoma) = tested on: IGR-37 (Melanoma)
Method in brief: as §1

[10] = tested on: ONS-76 (Other Solid Carcinomas)
Method in brief: as §1

[11] = tested on: HCC1954 (Breast Carcinoma)
Method in brief: as §1

[12] = tested on: NCI-H1650 (Lung Adenocarcinoma)
Method in brief: as §1

[13] = tested on: BICR22 (Oral Cavity Carcinoma)
Method in brief: as §1

[14] = tested on: TT (Thyroid Gland Carcinoma)
Method in brief: as §1

[15] = tested on: A3-KAW (B-Cell Non-Hodgkin's Lymphoma)
Method in brief: as §1

SMILES	combination Emax [1]	combination Emax [2]	combination Emax [3]	combination Emax [4]	combination Emax [5]	combination Emax [6]	combination Emax (A498 (Kidney Carcinoma))	combination Emax [7]	combination Emax [8]	combination Emax (CAS-1 (Glioblastoma))	combination Emax (PA-1 (Ovarian Carcinoma))	combination Emax (8-MG-BA (Glioblastoma))	combination Emax [9]	combination Emax (IGR-37 (Melanoma))	combination Emax [10]	combination Emax [11]	combination Emax [12]	combination Emax [13]	combination Emax [14]	combination Emax [15]
CCN(CCO)CCCOc1ccc2c(Nc3cc(CC(=O)Nc4cccc(F)c4)[nH]n3)ncnc2c1 [AZD2811] + C[C@@H]1COCCN1C2=NC(=NC(=C2)C3(CC3)[S@](=N)(=O)C)C4=C5C=CNC5=NC=C4 [AZD6738] (first compound max 1 µM, 7x7, partner max 10 µM)	0.551	0.28	0.67	0.577	0.339	0.599	0.647	0.474	0.744	0.544	0.795	0.785	0.565	0.711	0.908	0.39	0.414	0.729	0.475	0.968
CCN(CCO)CCCOc1ccc2c(Nc3cc(CC(=O)Nc4cccc(F)c4)[nH]n3)ncnc2c1 [AZD2811] + O=C(c1cc(Cc2n[nH]c(=O)c3ccccc23)ccc1F)N1CCN(C(=O)C2CC2)CC1 [Olaparib] (first compound max 1 µM, 7x7, partner max 10 µM)	0.454	0.284	0.288	0.673	0.214	0.0695	0.241	0.344	0.213	0.255	0.545	0.52	0.375	0.0609	0.398	0.152	0.249	0.362	0.458	0.688
CN(CCO)CC[C@H](CSc1ccccc1)Nc1ccc(S(=O)(=O)NC(=O)c2ccc(N3CCC([C@@H](O)c4ccccc4-c4ccc(Cl)cc4)CC3)cc2)cc1S(=O)(=O)C(F)(F)F [AZD4320] + C1CN(CCC1(C(=O)N[C@@H](CCO)C2=CC=C(C=C2)Cl)N)C3=NC=NC4=C3C=CN4 [Capivasertib] (first compound max 1 µM, 7x7, partner max 3 µM)	0.0618	0.201	0.221	1	0.923	0.0137	0.57	0.0979	0.124	0.327	0.743	0.291	0.989	0.186	0.221	0.902	0.143	0.684	0.408	0.367
CN(CCO)CC[C@H](CSc1ccccc1)Nc1ccc(S(=O)(=O)NC(=O)c2ccc(N3CCC([C@@H](O)c4ccccc4-c4ccc(Cl)cc4)CC3)cc2)cc1S(=O)(=O)C(F)(F)F [AZD4320] + C=CCn1c(=O)c2cnc(Nc3ccc(N4CCN(C)CC4)cc3)nc2n1-c1cccc(C(C)(C)O)n1 [AZD1775] (first compound max 1 µM, partner max 1 µM)	0.549	0.302	0.942	1	0.646	0.632	0.628	0.475	0.904	0.713	0.967	0.785	0.978	0.762	0.726	0.718	0.403	0.882	0.484	0.892
CN(CCO)CC[C@H](CSc1ccccc1)Nc1ccc(S(=O)(=O)NC(=O)c2ccc(N3CCC([C@@H](O)c4ccccc4-c4ccc(Cl)cc4)CC3)cc2)cc1S(=O)(=O)C(F)(F)F [AZD4320] + CCN(CCO)CCCOc1ccc2c(Nc3cc(CC(=O)Nc4cccc(F)c4)[nH]n3)ncnc2c1 [AZD2811] (first compound max 1 µM, 7x7, partner max 1 µM)	0.401	0.154	0.545	1	0.543	0.0615	0.218	0.445	0.341	0.417	0.773	0.21	0.903	0.116	0.589	0.851	0.254	0.828	0.615	0.371
CN(CCO)CC[C@H](CSc1ccccc1)Nc1ccc(S(=O)(=O)NC(=O)c2ccc(N3CCC([C@@H](O)c4ccccc4-c4ccc(Cl)cc4)CC3)cc2)cc1S(=O)(=O)C(F)(F)F [AZD4320] + CN(C)CCCOc1ccc(-c2ccc3ncc4c(c3c2)n(C2CCOCC2)c(=O)n4C)cn1 [AZD0156] (first compound max 1 µM, 7x7, partner max 1 µM)	0.0433	0.141	0.104	1	0.619	0.01	0.254	0.19	0.116	0.229	0.497	0.0798	0.957	0.116	0.178	0.327	0.0865	0.546	0.269	0.228
CN(CCO)CC[C@H](CSc1ccccc1)Nc1ccc(S(=O)(=O)NC(=O)c2ccc(N3CCC([C@@H](O)c4ccccc4-c4ccc(Cl)cc4)CC3)cc2)cc1S(=O)(=O)C(F)(F)F [AZD4320] + C[C@@H]1COCCN1C2=NC(=NC(=C2)C3(CC3)[S@](=N)(=O)C)C4=C5C=CNC5=NC=C4 [AZD6738] (first compound max 1 µM, 7x7, partner max 10 µM)	0.681	0.418	0.928	1	0.603	0.543	0.722	0.364	0.888	0.787	0.886	0.864	0.979	0.796	0.877	0.734	0.532	0.897	0.726	0.986
CN(CCO)CC[C@H](CSc1ccccc1)Nc1ccc(S(=O)(=O)NC(=O)c2ccc(N3CCC([C@@H](O)c4ccccc4-c4ccc(Cl)cc4)CC3)cc2)cc1S(=O)(=O)C(F)(F)F [AZD4320] + C[C@@H](Nc1cc(F)cc(F)c1)c1cc(C(=O)N(C)C)cc2c(=O)cc(N3CCOCC3)oc12 [AZD8186] (first compound max 1 µM, 7x7, partner max 3 µM)	0.315	0.42	0.515	1	0.64	0.236	0.911	0.287	0.546	0.623	0.927	0.316	0.999	0.341	0.338	0.546	0.402	0.838	0.803	0.761
CN(CCO)CC[C@H](CSc1ccccc1)Nc1ccc(S(=O)(=O)NC(=O)c2ccc(N3CCC([C@@H](O)c4ccccc4-c4ccc(Cl)cc4)CC3)cc2)cc1S(=O)(=O)C(F)(F)F [AZD4320] + Cn1cnc2c(F)c(Nc3ccc(Br)cc3Cl)c(C(=O)NOCCO)cc21 [Selumetinib] (first compound max 1 µM, 7x7, partner max 3 µM)	0.304	0.697	0.634	1	0.71	0.198	0.694	0.4	0.707	0.575	0.8	0.367	0.875	0.885	0.628	0.617	0.318	0.721	0.781	0.861
COc1nnc2ccc(N3CCC(c4ccc(OCCN5CCN(C)C(=O)[C@H]5C)cc4)CC3)nn12 [AZD5153] + C=CCn1c(=O)c2cnc(Nc3ccc(N4CCN(C)CC4)cc3)nc2n1-c1cccc(C(C)(C)O)n1 [AZD1775] (first compound max 1 µM, partner max 1 µM)	0.65	0.413	0.524	0.946	0.475	0.661	0.534	0.866	0.901	0.658	0.973	0.801	0.888	0.775	0.601	0.306	0.477	0.489	0.563	1
COc1nnc2ccc(N3CCC(c4ccc(OCCN5CCN(C)C(=O)[C@H]5C)cc4)CC3)nn12 [AZD5153] + CC1(C)CCC(CN2CCN(c3ccc(C(=O)NS(=O)(=O)c4ccc(NCC5CCOCC5)c([N+](=O)[O-])c4)c(Oc4cnc5[nH]ccc5c4)c3)CC2)=C(c2ccc(Cl)cc2)C1 [Venetoclax] (first compound max 1 µM, 7x7, partner max 1 µM)	0.33	0.439	0.327	0.934	0.338	0.442	0.439	0.469	0.769	0.622	0.862	0.707	0.948	0.65	0.538	0.152	0.394	0.235	0.596	1
